Where two headings read alike, the source gives them in different places.
System: β-catenin-TCF-mediated reporter transcription activity in Colo 205 cells
Test: Colo 205 reporter assay (TCF/LEF luciferase)
Format: cell-based
Details: Homo sapiens, Colo 205 TCF/LEF luciferase reporter, read-out: TCF reporter Colo205 IC50
Summary of the method: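 Luciferase signal from a TCF/LEF-driven reporter, stably integrated in Colo 205 colon cancer cells, was measured 5 h after compound addition.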

[1] = COLO 205, 5 h, five hours after addition of compound
[2] = COLO 205, 5 h, R-isomer at C2 (corresponding to C2 S-isomer), 5 h

SMILES	IC50 [1] [nM]	other results
CCN1C(=O)C2(CC2)N(CC)c2nc(NCc3cnn(Cc4cc(F)c(F)c(F)c4)c3)ncc21 [Compound 233, 5′,8′-diethyl-2′-(((1-(3,4,5-trifluorobenzyl)-1H-pyrazol-4-yl)methyl)amino)-5′,8′-dihydro-6′H-spiro[cyclopropane-1,7′-pteridin]-6′-one]	< 300	–
C[C@H]1C(=O)Nc2cnc(NCc3cnn(CCc4cc(F)cc(F)c4)c3)nc2N1C [Compound 120, (7S)-2-(((1-(3,5-difluorophenethyl)-1H-pyrazol-4-yl)methyl)amino)-7,8-dimethyl-7,8-dihydropteridin-6(5H)-one]	300 to 1000	–
Cc1nc(NCc2cnn(Cc3ccc(Cl)nc3)c2)nc2c1NC(=O)[C@H](C(C)(C)C)N2C [Compound 438, (7S)-7-(tert-butyl)-2-(((1-((6-chloropyridin-3-yl)methyl)-1H-pyrazol-4-yl)methyl)amino)-4,8-dimethyl-7,8-dihydropteridin-6(5H)-one]	< 300	–
Cc1nc(N[C@H]2C[C@@H](NC(=O)Nc3ccc(Cl)nc3)C2)nc2c1NC(=O)[C@H](C)N2C [Compound 462, 1-(6-chloropyridin-3-yl)-3-(cis-3-(((S)-4,7,8-trimethyl-6-oxo-5,6,7,8-tetrahydropteridin-2-yl)amino)cyclobutyl)urea]	1000 to 5000	–
Cc1nc(N[C@H]2C[C@H](Nc3cnc(C(F)(F)F)cn3)C2)nc2c1NC(=O)[C@H](C(C)C)N2C [Compound 558, (S)-7-isopropyl-4,8-dimethyl-2-((trans-3-((5-(trifluoromethyl)pyrazin-2-yl)amino)cyclobutyl)amino)-7,8-dihydropteridin-6(5H)-one]	1000 to 5000	–
Cc1nc(N[C@H]2C[C@H](NC(=O)Oc3ccc(F)cc3)C2)nc2c1NC(=O)[C@H](C)N2C [Compound 465, 4-fluorophenyl (trans-3-(((S)-4,7,8-trimethyl-6-oxo-5,6,7,8-tetrahydropteridin-2-yl)amino)cyclobutyl)carbamate]	–	IC50 (5 h, five hours after addition of compound): 300 to 1000 nM
CCc1noc(C)c1Cn1cc(CNc2nc(C)c3c(n2)N(C)[C@@H](C)C(=O)N3)cn1 [Compound 158, (7S)-2-(((1-((3-ethyl-5-methylisoxazol-4-yl)methyl)-1H-pyrazol-4-yl)methyl)amino)-4,7,8-trimethyl-7,8-dihydropteridin-6(5H)-one]	< 300	–
Cc1nc(NCc2cnn(Cc3cc(F)c(F)c(F)c3)c2)nc2c1NC(=O)[C@H](COC(C)(C)C)N2C [Compound 741, (S)-7-(tert-butoxymethyl)-4,8-dimethyl-2-(((1-(3,4,5-trifluorobenzyl)-1H-pyrazol-4-yl)methyl)amino)-7,8-dihydropteridin-6(5H)-one]	300 to 1000	–
CO[C@H](C)[C@H]1C(=O)Nc2c(C)nc(N[C@H]3C[C@H](Oc4cnc(C(F)(F)F)nc4)C3)nc2N1C [Compound 657, (S)-7-((R)—1-methoxyethyl)-4,8-dimethyl-2-((trans-3-((2-(trifluoromethyl)pyrimidin-5-yl)oxy)cyclobutyl)amino)-7,8-dihydropteridin-6(5H)-one]	< 300	–
CC[C@H]1C(=O)Nc2c(C)nc(N[C@H]3C[C@@H](Nc4cnc(C(F)(F)F)cn4)C3)nc2N1C [Compound 648, (S)-7-ethyl-4,8-dimethyl-2-((cis-3-((5-(trifluoromethyl)pyrazin-2-yl)amino)cyclobutyl)amino)-7,8-dihydropteridin-6(5H)-one]	< 300	–
Cc1nc(NCc2cnn(CCc3ccc(C(F)(F)F)nc3)c2)nc2c1NC(=O)[C@H](C)N2C [Compound 444, (7S)-4,7,8-trimethyl-2-(((1-(2-(6-(trifluoromethyl)pyridin-3-yl)ethyl)-1H-pyrazol-4-yl)methyl)amino)-7,8-dihydropteridin-6(5H)-one]	300 to 1000	–
CO[C@H](C)[C@H]1C(=O)Nc2c(C)nc(N[C@@H]3CC[C@H](Nc4cnc(C(F)(F)F)cn4)C3)nc2N1C [Compound 736, (S)-7-((R)—1-methoxyethyl)-4,8-dimethyl-2-(((1R,3S)-3-((5-(trifluoromethyl)pyrazin-2-yl)amino)cyclopentyl)amino)-7,8-dihydropteridin-6(5H)-one]	300 to 1000	–
Cc1nc(NC2CN(C(=O)Cc3cc(F)cc(F)c3)C2)nc2c1NC(=O)[C@H](C(C)C)N2C [Compound 629, (S)-2-((1-(2-(3,5-difluorophenyl)acetyl)azetidin-3-yl)amino)-7-isopropyl-4,8-dimethyl-7,8-dihydropteridin-6(5H)-one]	< 300	–
Cc1nc(N[C@H]2C[C@@H](Cn3nc(C4CC4)cc3C(F)(F)F)C2)nc2c1NC(=O)[C@H](C(C)C)N2C [Compound 581, (S)-2-((cis-3-((3-cyclopropyl-5-(trifluoromethyl)-1H-pyrazol-1-yl)methyl)cyclobutyl)amino)-7-isopropyl-4,8-dimethyl-7,8-dihydropteridin-6(5H)-one]	< 300	–
CO[C@H](C)[C@H]1C(=O)Nc2c(C)nc(N[C@H]3C[C@H](N(C)c4cnc(C(F)(F)F)cn4)C3)nc2N1C [Compound 681, (S)-7-((R)-1-methoxyethyl)-4,8-dimethyl-2-((trans-3-(methyl(5-(trifluoromethyl)pyrazin-2-yl)amino)cyclobutyl)amino)-7,8-dihydropteridin-6(5H)-one]	300 to 1000	–
CCC[C@@H]1C(=O)Nc2c(C)nc(NCc3cnn(Cc4ccc(C(F)(F)F)nc4)c3)nc2N1C [Compound I-1638]	–	IC50 [2]: 1000 to 5000 nM
Cc1nc(NCc2cnn(CCC3CCCC3)c2)nc2c1NC(=O)[C@H](C)N2C [Compound 133, (7S)-2-(((1-(2-cyclopentylethyl)-1H-pyrazol-4-yl)methyl)amino)-4,7,8-trimethyl-7,8-dihydropteridin-6(5H)-one]	< 300	–
Cc1nc(N[C@H]2C[C@@H](Nc3ccc(C(F)(F)F)nc3)C2)nc2c1NC(=O)[C@H](C(C)C)N2C [Compound 586, (S)-7-isopropyl-4,8-dimethyl-2-((cis-3-((6-(trifluoromethyl)pyridin-3-yl)amino)cyclobutyl)amino)-7,8-dihydropteridin-6(5H)-one]	< 300	–
Cc1nc(NCc2cnn(Cc3ccc(F)cn3)c2)nc2c1NC(=O)[C@H](C(C)C)N2C [Compound 454, (S)-2-(((1-((5-fluoropyridin-2-yl)methyl)-1H-pyrazol-4-yl)methyl)amino)-7-isopropyl-4,8-dimethyl-7,8-dihydropteridin-6(5H)-one]	< 300	–
Cc1nc(N[C@H]2C[C@@H](Nc3ccc(F)cn3)C2)nc2c1NC(=O)[C@H](C(C)C)N2C [Compound 732, (S)-2-((cis-3-((5-fluoropyridin-2-yl)amino)cyclobutyl)amino)-7-isopropyl-4,8-dimethyl-7,8-dihydropteridin-6(5H)-one]	1000 to 5000	–
Cc1nc(N[C@H]2C[C@H](NC(=O)Cc3ccc(C(F)(F)F)nc3)C2)nc2c1NC(=O)[C@H](C(C)C)N2C [Compound 560, N-(trans-3-(((S)-7-isopropyl-4,8-dimethyl-6-oxo-5,6,7,8-tetrahydropteridin-2-yl)amino)cyclobutyl)-2-(6-(trifluoromethyl)pyridin-3-yl)acetamide]	≥ 5000	–
Cc1nc(N[C@H]2C[C@@H](Nc3cnc(C(F)(F)F)cn3)C2)nc2c1NC(=O)C1(CCOC1)N2C (relative stereo) [Compound 687, 4′,8′-dimethyl-2′-((cis-3-((5-(trifluoromethyl)pyrazin-2-yl)amino)cyclobutyl)amino)-4,5,5′,8′-tetrahydro-2H,6′H-spiro[furan-3,7′-pteridin]-6′-one]	300 to 1000	–
Cc1nc(N[C@H]2C[C@@H](COc3ccc(Cl)nc3)C2)nc2c1NC(=O)[C@H](C(C)C)N2C [Compound 570, (S)-2-((cis-3-(((6-chloropyridin-3-yl)oxy)methyl)cyclobutyl)amino)-7-isopropyl-4,8-dimethyl-7,8-dihydropteridin-6(5H)-one]	< 300	–
Cc1nc(N[C@H]2C[C@@H](COc3ccc(F)cc3Cl)C2)nc2c1NC(=O)[C@H](C)N2C [Compound 282, (7S)-2-((cis-3-((2-chloro-4-fluorophenoxy)methyl)cyclobutyl)amino)-4,7,8-trimethyl-7,8-dihydropteridin-6(5H)-one]	< 300	–
CO[C@H](C)[C@H]1C(=O)Nc2c(C)nc(N[C@H]3C[C@@H](N(C)c4cnc(C(F)(F)F)cn4)C3)nc2N1C [Compound 651, (S)-7-((R)—1-methoxyethyl)-4,8-dimethyl-2-((cis-3-(methyl(5-(trifluoromethyl)pyrazin-2-yl)amino)cyclobutyl)amino)-7,8-dihydropteridin-6(5H)-one]	1000 to 5000	–
CCN1c2nc(NCc3cnn(Cc4ccc(F)cc4)c3)ncc2N(C)C(=O)[C@H]1C [Compound I-860]	–	IC50 [2]: < 300 nM
Cc1nc(N[C@H]2CCc3c2cnn3Cc2ccc(C(F)(F)F)nc2)nc2c1NC(=O)[C@H](C)N2C [Compound 624, (7S)-4,7,8-trimethyl-2-(((S)-1-((6-(trifluoromethyl)pyridin-3-yl)methyl)-1,4,5,6-tetrahydrocyclopenta[c]pyrazol-4-yl)amino)-7,8-dihydropteridin-6(5H)-one]	≥ 5000	–
Cc1nc(NCc2cnn(C[C@H](O)c3ccc(F)cc3)c2)nc2c1NC(=O)[C@H](C)N2C [Compound 132, (7S)-2-[[1-[(2R)-2-(4-fluorophenyl)-2-hydroxy-ethyl]pyrazol-4-yl]methylamino]-4,7,8-trimethyl-5,7-dihydropteridin-6-one]	300 to 1000	–
Cc1nc(NCc2cnn(Cc3cc(F)c(F)c(F)c3)c2)nc2c1NC(=O)[C@H](C1CC1)N2C [Compound 456, (S)-7-cyclopropyl-4,8-dimethyl-2-(((1-(3,4,5-trifluorobenzyl)-1H-pyrazol-4-yl)methyl)amino)-7,8-dihydropteridin-6(5H)-one]	< 300	–
Cc1nc(N[C@H]2CC[C@@H](N(C)c3ccc(C(F)(F)F)cc3)C2)nc2c1NC(=O)[C@H](C(C)C)N2C [Compound 502, (S)-7-isopropyl-4,8-dimethyl-2-(((1S,3R)-3-(methyl(4-(trifluoromethyl)phenyl)amino)cyclopentyl)amino)-7,8-dihydropteridin-6(5H)-one]	1000 to 5000	–

From patent US20230312587A1, “PTERIDINONE COMPOUNDS AND USES THEREOF” (Vertex Pharmaceutical Incorporated, priority 2018, published 2023)
